Test results published in US20020182594A1, “Chemomagnetic retrieval of CMV and CMV infected cells” (priority 2001, published 2002).

B1: fractalkine: the CX3C chemokine, expressed on certain endothelial cell surfaces and dendritic cells; native ligand of US28 (protein, UniProt P78423 25-397, looked up)
Fractalkine: QHHGVTKCNITCSKMTSKIPVALLIHYQQNQASCGKRAIILETRQHRLFCADPKEQWVKDAMQHLDRQAAALTRNGGTFEKQIGEVKPRTTPAAGGMDESVVLEPEATGESSSLEPTPSSQEAQRALGTSPELPTGVTGSSGTRLPPTPKAQDGGPVGTELFRVPPVSTAATWQSSAPHQPGPSLWAEAKTSEAPSTQDPSTQASTASSPAPEENAPSEGQRVWGQGQSPRPENSLEREEMGPVPAHTDAFQDWGPGSMAHVSVVPVSSEGTPSREPVASGSWTPKAEEPIHATMDPQRLGVLITPVPDAQAATRRQAVGLLAFLGLLFCLGVAMFTYQSLQGCPRKMAGEMAEGLRYIPRSCGSNSYVLVPV

Legend:
US28 [1] = target: T1, US28 (Human cytomegalovirus, UniProt P69332); test: Inhibition of binding of native chemokine ligands (fractalkine, eotaxin) to US28; parameters: species or system human CMV (HCMV); conditions: native chemokine ligands such as fractalkine and eotaxin, among others
T1 sequence (P69332 whole entry): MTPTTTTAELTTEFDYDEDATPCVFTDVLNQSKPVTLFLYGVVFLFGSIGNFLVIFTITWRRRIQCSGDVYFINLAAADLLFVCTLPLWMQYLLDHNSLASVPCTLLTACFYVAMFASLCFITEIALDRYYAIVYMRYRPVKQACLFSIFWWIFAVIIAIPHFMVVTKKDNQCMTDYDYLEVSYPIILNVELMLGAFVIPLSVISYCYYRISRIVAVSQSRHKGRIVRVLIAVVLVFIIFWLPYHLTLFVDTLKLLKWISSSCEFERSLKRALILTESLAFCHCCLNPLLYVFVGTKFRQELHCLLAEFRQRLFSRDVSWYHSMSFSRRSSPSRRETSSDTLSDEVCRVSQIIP

chemokine receptors = test: Binding specificity among chemokine receptors tested
US28 [2] = target: T1, US28; test: Binding affinity of fractalkine to US28; parameters: species or system human CMV (HCMV); conditions: read-out: K1 (affinity of binding to US28)

Molecule	inhibition of the binding of native chemokine ligands to US28 (US28 [1])	specificity of binding to US28 among all chemokine receptors tested (chemokine receptors)	Ki (US28 [2])
CCN1CCC[C@H]1CNC(=O)c1c(OC)ccc(I)c1O [S(−)-IBZM, S(−)-3-Iodo-2-hydroxy-6-methoxy-N[(1-ethyl-2-pyrrolidinyl)methyl]benzamide]	effective inhibitor	bind specifically to US28	–
B1	–	–	~0.05 nM
